# In article PMC9305971, “Development of [^18F]AmBF3 Tetrazine for Radiolabeling of Peptides: Preclinical Evaluation and PET Imaging of [^18F]AmBF3-PEG7-Tyr^3-Octreotide in an AR42J Pancreatic Carcinoma Model” (Bioconjugate Chemistry, 2022):
# Where two headings read alike, the source gives them in different places.
# Assays:
# [1] = Enzymatic stability in 50% human plasma-0.01 M PBS; assay type: in vitro ADME; settings: 50% (v/v) human plasma-0.01 M PBS, 37 °C
# Procedure: Lipophilicity was determined with the shake-flask method as a distribution coefficient between 0.01 M PBS and octanol. Purified radiotracer [^18F]6 (10 μL, ∼200 kBq, 1.5 nmol), [^18F]14 (20 μL, ∼260 kBq, 125 pmol), or [^18F]15 (20 μL, 144 kBq, 67 pmol) in a polypropylene tube containing 1500–2000 μL of each in a 1:1 mixture (1-octanol, 0.02 M PBS, pH 7.4) was shaken mechanically (500 rpm, 10 min) and centrifuged (1000g, 5 min), and samples from each layer (400 μL, n = 4) were measured with a γ-counter. The log D7.4 was calculated as a distribution between the two layers at pH 7.4. [^18F]6 (10 MBq, 40 nmol) diluted with 0.01 M PBS at pH 7.4 (≤1% ethanol, 5300 μL) was incubated for 180 min. At selected time points (5, 30, 60, 90, 120, 150, and 180 min), a sample (100 μL) was injected to radio-HPLC. [^18F]14 and [^18F]15 (29 MBq, 10 nmol) diluted in 2000 μL of 0.01 M PBS (≤1% ethanol) were left to incubate. A sample of [^18F]14 (100 μL) after 9 hours and [^18F]15 at selected time points between 30 and 335 min were injected into HPLC (method A). [^18F]15 (0.6 MBq, 0.134 nmol, 200 μL) formulated in ≤5% EtOH-1 × PBS was added and incubated in 2000 μL of PBS-50% human plasma at 37 °C. A 100 μL sample (at 60, 120, 180, and 240 min, n = 2) was diluted with 200 μL of cold acetonitrile and centrifuged (10,000g, 5 min). […]
# [2] = tested on: SSTR2-expressing rat pancreatic adenocarcinoma AR42J cells; assay: Cell uptake assay; assay type: cell-based; settings: 120 min
# Procedure: AR42J cells were grown to >90% confluence. One million cells/well were seeded overnight on 6-well plates. The growth media was removed, and the reaction media (1 mL) containing [^18F]14 (11 kBq, 10 pmol per well) or [^18F]15 (97 kBq, 40 pmol per well) was added. Additionally, cells were coincubated with 2.4 nmol per well of nonmodified octreotide for blocking of radiotracer uptake. Radioactivity in the free, membrane-bound, and internalized fractions was determined at designated time points (15, 30, 60, and 120 min) by treating the cells in a sequence of (1) ice-cold 0.01 M PBS, (2) glycine buffer, and (3) 1 M NaOH, respectively. The fractions were collected and measured with a γ-counter. The detailed protocol is given in the Supporting Information. […]
# where Acoct=radioactivity concentration of octanol and AcPBS=radioactivity concentration of PBS. The datapoints were presented as mean ± standard deviation.
# AR42J cell-uptake assay and mouse tumor model. Rat pancreatic tumor cell line AR42J that expresses SSTR2, was cultured at 37 °C in 95% relative humidity incubator containing 5% CO2. Cells grown to >90% confluence were used for either in vitro or in vivo experiments.
# One million cells/well were seeded overnight on 6-well plates. The growth media was removed and the medium (1 mL/well) containing [18F]14 (11 kBq, 10 pmol per well) or [18F]15 (97 kBq, 40 pmol per well) was added. For studying the specificity of the cell -uptake, a set of cells were co-incubated in the presence of 2.4 nmol per well of non -modified octreotide representative of blocking conditions (total volume ~1 mL). For determining the amount of the radiotracer in the free fraction, at the designated time-points (15, 30, 60 and 120 min) the incubated media were removed, collected to a 5 mL scintillation tube, cells were washed with 1 mL of cold 0.01 M PBS (1×PBS) and again the supernatant collected into the same scintillation tube. Membrane-bound fraction; ice-cold glycine buffer (1 mL) was added on the cells, incubated for 5 minutes on ice, supernatant removed (procedure repeated once more) and the cells washed with ice -cold 1×PBS, and all washing solutions were collected to the same scintillation tube. Internalized fraction; 1 M NaOH (1 mL) was added on the cells and left incubating at an ambient temperature for 10 min. The supernatant was removed, the wells were washed 2 × 1 mL of cold 0.01 M PBS, and the supernatants collected to the same microtube. The collected samples were measured with a gamma counter for measuring the counts per minute (CPM) of each fraction (n = 3). The internalization is presented in percent (%) normalized to the total radioactivity in all three
# [3] = Ex vivo biodistribution of [18F]14 and [18F]15; assay type: in vivo, Rj:NMRI-Foxn1^nu/nu mice; settings: mouse, iv, 0.2 nmol; for tissue to tissue ratio at 1 h: Rj:NMRI-Foxn1^nu/nu, tumor (AR42J xenograft) / blood, total radioactivity, read-out: T/blood ratio; for tissue to tissue ratio at 1 h / tissue uptake at 1 h: 60 min post injection; for tissue uptake at 1 h / tissue uptake at 2 h: i.v.; for tissue uptake at 2 h: 120 min post injection
# Procedure: (§1) [^18F]14 and [^18F]15 in ≤4% ethanol–0.01 M PBS were administered intravenously (1.2 ± 0.0 and 2.0 ± 0.1 MBq, respectively, 0.2 nmol, 150 μL) to AR42J tumor-bearing Rj:NMRI-Foxn1^nu/nu mice. At predetermined time points (t = 30, 60, 120, and 240 min), animals were euthanized with CO2 asphyxiation and cervical dislocation, and then the organs were harvested, washed with water, and blotted dry, following with weighing and γ counting from which the % ID/g in tissues was determined.
# [4] = tested on: AR42J xenografts; assay: Ex vivo biodistribution of [18F]14 and [18F]15; assay type: in vivo, Rj:NMRI-Foxn1^nu/nu mice
# Procedure: as §1
structure (smiles),measurement,setting,value
C[C@@H](O)[C@@H]1NC(=O)[C@H](CCCCN)NC(=O)[C@@H](Cc2c[nH]c3ccccc23)NC(=O)[C@H](Cc2ccc(O)cc2)NC(=O)[C@@H](NC(=O)[C@@H](Cc2ccccc2)NC(=O)CCOCCOCCOCCOCCON=Cc2ccc(C(=O)NCCOCCOCCOCCNC(=O)OC3CCCc4cnnc(-c5ccc(CC(=O)NCC[N+](C)(C)C[B-](F)(F)F)cc5)c4CC3)cc2)CSSC[C@@H](C(=O)N[C@H](CO)[C@@H](C)O)NC1=O (stereo partly drawn) [[^18F]15],"enzymatic stability, time stable",[1],at least 180 min
same,"cell uptake, baseline","[2]; n = 3, % internalized",6.1 ± 0.6%
same,"cell uptake, blocking","[2]; n = 3, coincubation with excess octreotide",0.7 ± 0.1%
same,tissue to tissue ratio at 1 h,[3]; blocked,0.4
same,tissue to tissue ratio at 1 h,[3]; baseline,0.5
same,tissue uptake at 1 h,"[3]; baseline, read-out: blood",9.6 ± 3.3 %ID/g
same,tissue uptake at 1 h,"[3]; baseline, read-out: brain",0.3 ± 0.1 %ID/g
same,tissue uptake at 1 h,"[3]; baseline, read-out: gallbladder",9.1 ± 7 %ID/g
same,tissue uptake at 1 h,"[3]; baseline, read-out: heart",2.6 ± 0.6 %ID/g
same,tissue uptake at 1 h,"[3]; baseline, read-out: kidney",21 ± 4.5 %ID/g
same,tissue uptake at 1 h,"[3]; baseline, read-out: liver",19 ± 5.4 %ID/g
same,tissue uptake at 1 h,"[3]; baseline, read-out: lung",5.4 ± 2.3 %ID/g
same,tissue uptake at 1 h,"[3]; baseline, read-out: muscle",1.1 ± 0.9 %ID/g
same,tissue uptake at 1 h,"[3]; baseline, read-out: pancreas",1.6 ± 0.5 %ID/g
same,tissue uptake at 1 h,"[3]; baseline, read-out: skin",2.4 ± 0.9 %ID/g
same,tissue uptake at 1 h,"[3]; baseline, read-out: spleen",1.4 ± 0.3 %ID/g
same,tissue uptake at 1 h,"[3]; baseline, read-out: urine",~174 %ID/g
same,tissue uptake at 1 h,"[3]; blocked with octreotide, read-out: blood",7.2 ± 2.5 %ID/g
same,tissue uptake at 1 h,"[3]; blocked with octreotide, read-out: brain",0.2 ± 0.1 %ID/g
same,tissue uptake at 1 h,"[3]; blocked with octreotide, read-out: gallbladder",18.8 ± 10.3 %ID/g
same,tissue uptake at 1 h,"[3]; blocked with octreotide, read-out: heart",2.1 ± 0.5 %ID/g
same,tissue uptake at 1 h,"[3]; blocked with octreotide, read-out: kidney",15.9 ± 2.7 %ID/g
same,tissue uptake at 1 h,"[3]; blocked with octreotide, read-out: liver",11.8 ± 4.7 %ID/g
same,tissue uptake at 1 h,"[3]; blocked with octreotide, read-out: lung",3.6 ± 1.4 %ID/g
same,tissue uptake at 1 h,"[3]; blocked with octreotide, read-out: muscle",0.5 ± 0.1 %ID/g
same,tissue uptake at 1 h,"[3]; blocked with octreotide, read-out: pancreas",0.9 ± 0.5 %ID/g
same,tissue uptake at 1 h,"[3]; blocked with octreotide, read-out: skin",1.6 ± 0.2 %ID/g
same,tissue uptake at 1 h,"[3]; blocked with octreotide, read-out: spleen",0.9 ± 0.2 %ID/g
same,tissue uptake at 1 h,"[3]; blocked with octreotide, read-out: urine",303 ± 146 %ID/g
same,tissue uptake at 1 h,"[3]; large intestine with contents, baseline, read-out: L. I. (+cont.), large intestine",1 ± 0.7 %ID/g
same,tissue uptake at 1 h,"[3]; large intestine with contents, blocked with octreotide, read-out: L. I. (+cont.), large intestine",0.7 ± 0.3 %ID/g
same,tissue uptake at 1 h,"[3]; occipital bone, baseline, read-out: bone, occipital",0.9 ± 0.3 %ID/g
same,tissue uptake at 1 h,"[3]; occipital bone, blocked with octreotide, read-out: bone, occipital",1 ± 0.3 %ID/g
same,tissue uptake at 2 h,"[3]; occipital bone, read-out: bone, occipital",0.6 ± 0.1 %ID/g
same,tissue uptake at 1 h,"[3]; small intestine with contents, baseline, read-out: S. I. (+cont.), small intestines",3.6 ± 2.1 %ID/g
same,tissue uptake at 1 h,"[3]; small intestine with contents, blocked with octreotide, read-out: S. I. (+cont.), small intestines",5 ± 1.7 %ID/g
same,tissue uptake at 1 h,"[3]; stomach with contents, baseline, read-out: stomach (+cont.)",1.4 ± 0.8 %ID/g
same,tissue uptake at 1 h,"[3]; stomach with contents, blocked with octreotide, read-out: stomach (+cont.)",0.6 ± 0.1 %ID/g
same,tissue uptake at 1 h,"[3]; tibia bone, baseline, read-out: bone, tibia",1.1 ± 0.4 %ID/g
same,tissue uptake at 1 h,"[3]; tibia bone, blocked with octreotide, read-out: bone, tibia",0.8 ± 0.2 %ID/g
same,tissue uptake at 2 h,"[3]; tibia bone, read-out: bone, tibia",0.6 ± 0.4 %ID/g
same,tissue uptake at 1 h,"[3]; tumor, AR42J xenograft, baseline, read-out: tumor uptake",4.5 ± 1 %ID/g
same,tissue uptake at 1 h,"[3]; tumor, AR42J xenograft, blocked with octreotide, read-out: tumor uptake",3.1 ± 0.5 %ID/g
same,urine,"[4]; 60 min post injection, i.v., baseline",174.2 ± 73.4 % ID/g
same,defluorination in vivo (in words),[4]; judged from bone uptake,no indication of defluorination
